Laboratory results from patent US20090209492A1, “Lipase Inhibitors” (TRUSTEES OF TUFTS COLLEGE, priority 2004, published 2009).
pIC50: −log10 of the molar value.

Target: T1, endothelial lipase (Homo sapiens, UniProt Q9Y5X9)
T1 sequence (Q9Y5X9 21-500): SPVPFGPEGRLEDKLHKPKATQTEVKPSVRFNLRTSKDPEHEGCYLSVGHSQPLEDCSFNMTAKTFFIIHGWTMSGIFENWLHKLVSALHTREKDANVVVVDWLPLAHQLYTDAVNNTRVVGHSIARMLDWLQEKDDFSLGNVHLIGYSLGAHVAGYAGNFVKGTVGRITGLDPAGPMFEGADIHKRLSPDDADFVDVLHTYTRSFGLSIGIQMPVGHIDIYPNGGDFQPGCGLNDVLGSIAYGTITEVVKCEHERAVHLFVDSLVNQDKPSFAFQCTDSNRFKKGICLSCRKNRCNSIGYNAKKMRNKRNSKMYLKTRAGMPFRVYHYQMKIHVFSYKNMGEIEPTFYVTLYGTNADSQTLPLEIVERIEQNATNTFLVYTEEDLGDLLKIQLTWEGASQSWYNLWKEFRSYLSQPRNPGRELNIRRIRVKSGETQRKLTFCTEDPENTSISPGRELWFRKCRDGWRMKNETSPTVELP
Experiment: Endothelial lipase inhibiting activity of boronic acids
Type: biochemical
Settings: for inhibition at 50 µM: 50 micromolar solution of each compound; for pIC50: endothelial lipase
Description: The endothelial lipase inhibiting activity of various aliphatic boronic acids was tested.
The endothelial lipase inhibiting activity of various aromatic boronic acids was tested.

Compound | inhibition at 50 µM (aliphatic boronic acids) | inhibition at 50 µM (aromatic boronic acids) | also measured
Cc1ccc(B(O)O)cc1 |  | 88% | pIC50 (aromatic boronic acids): 4.77
O=Cc1ccc(B(O)O)cc1 |  | 60% | 
CC(C)CB(O)O | 9% |  | 
CCc1ccc(B(O)O)cc1 |  | 83% | pIC50 (aromatic boronic acids): 4.96
OB(O)C1CCCC1 |  | 7% | 
OB(O)C1CCCCC1 |  | 1% | 
OB(O)Cc1ccccc1 |  | 10% | 
CC(=O)c1ccc(B(O)O)cc1 |  | 80% | pIC50 (aromatic boronic acids): 4.59
C=CCCCB(O)O | 72% |  | pIC50 (aliphatic boronic acids): 4.59
CCCCCCCCCCCCCCCCB(O)O | 62% |  | 

Now from value to compound, other results behind:

inhibition at 50 µM (aliphatic boronic acids) | inhibition at 50 µM (aromatic boronic acids) | Compound | also measured
89% |  | CCCCCCCCCCCCCCB(O)O | pIC50 (aliphatic boronic acids): 6.00
77% |  | CCCCCC/C=C/B(O)O | 
90% |  | CCCCCCCCCCCCCCCB(O)O | 
53% |  | CCCCCCB(O)O | 
42% |  | CCCCCB(O)O | 
63% |  | CCCCC/C=C/B(O)O | 
82% |  | CCCCCCC/C=C/B(O)O | 
